Like-named read-outs stand apart in the source and are kept apart here. Marks after values point to notes of the source that are not given here.
How the values were obtained:
[1] = molecular target: serotonin transporter (Homo sapiens, UniProt P31645); settings: cited from earlier work
[2] = tested on: patients with a diagnosis of PTSD or MDD; healthy subjects; assay: Methylone case series (Example 4, Cohorts 1 and 2): CGI-S/CGI-I and safety events; type: in vivo, human
Description: CGI-S scale was also evaluated in a subset of patients from Cohort 2 post-treatment. Cohort 2 was evaluated for any observed or reported safety events following a single dosing session.
Clinical Global Impressions (CGI) scale includes 2 components: CGI-S(“severity”) and CGI-I (“improvement”).
• 1=Normal—not at all ill, symptoms of disorder not present past seven days • 2=Borderline mentally ill-subtle or suspected pathology • 3=Mildly ill-clearly established symptoms with minimal, if any, distress or difficulty in social and occupational function • 4=Moderately ill-overt symptoms causing noticeable, but modest, functional impairment or distress; symptom level may warrant medication • 5=Markedly ill-intrusive symptoms that distinctly impair social/occupational function or cause intrusive levels of distress • 6=Severely ill-disruptive pathology, behavior and function are frequently influenced by symptoms, may require assistance from others • 7=Among the most extremely ill patients-pathology drastically interferes in many life functions; may be hospitalized
Only sessions that included methylone dosing were counted as dosing sessions.
Single sessions occurred for 8 of the 28 cases with no booster in two of these cases. In the remainder of the cases, multiple sessions occurred, and booster doses were used in all or some of the remaining patients ([…]) with multiple booster doses used in some or all of the sessions in 15 patients.

[3] = tested on: patients with a primary diagnosis of PTSD; assay: Methylone PTSD case series with long-term follow-up (Example 5): CGI-I and safety; type: in vivo, human
Description: The patients were not given structured psychotherapy in conjunction with methylone treatment, which differs from recent studies of MDMA that emphasize the importance of a manualized psychedelic-assisted psychotherapy model.
No protectedhealth information was disclosed, and no consent was obtained from patients for use of their archival data. Case narratives were systematically compiled from data collected as part of routine clinical work. Diagnoses were confirmed by an experienced clinician using semi-structured interviews. Baseline symptom severity was evaluated using the Clinical Global Impressions Scale-Severity ([…]). Symptom improvement was evaluated using the Clinical Global Impressions Scale-Improvement (CGI-I) following dosing. […] Because these case narratives were examined retrospectively from routine clinical care records, and not gathered prospectively in a research study, more specific validated rating scales for assessing PTSD symptoms were not available. Additionally, follow-up varied, with the length of follow-up ranging from one week (Case 2) to 15 years (Case 16).
Dosing summary: Methylone was administered orally. Other medications were not changed during methylone treatment. […] In several cases, treatment was continued and, in some cases, the dose was further escalated in later sessions (see Table 5). Booster doses were included for 19 patients in one or more of the sessions. Starting doses were between 100 and 270 mg, and these as well as booster doses were selected based on clinical judgement.

[4] = tested on: drug users / humans; settings: methylone 50 mg in humans (Poyatos 2022); cited from earlier work
[5] = molecular target: norepinephrine (NE) transporter (Homo sapiens, UniProt P23975); assay: Radioligand binding, [3H] nisoxetine
[6] = tested on: 168 GPCRs; assay: DiscoverX PathHunter β-arrestin GPCR screen, agonist and antagonist mode; type: cell-based; settings: 1 and 10 micromolar
Description: For agonist determination, cells were incubated with sample to induce response. […] Vehicle concentration was 1%.
Vehicle concentration was 1%.

[7] = molecular target: serotonin (5HT) transporter (Homo sapiens, UniProt P31645); assay: Radioligand binding, [3H] citalopram
[8] = molecular target: T1, serotonin transporter (SERT) (Rattus norvegicus, UniProt P31652); assay: [3H]5HT uptake saturation in rat brain synaptosomes with or without methylone; type: biochemical
T1 construct: from tissue; host or cells: rat brain synaptosomes

[9] = molecular target: dopamine (DA) transporter (Homo sapiens, UniProt Q01959); assay: Radioligand binding, [3H] WIN35428
[10] = tested on: mice; assay: Fear extinction paradigm, mouse model of PTSD; type: in vivo
Description: (FIG. 9A) Schematic of experimental design. A single CS-US (tone-shock) pairing on day 1 was followed by 6 CS presentations in a novel context (context B). […] On day 3, the time spent freezing to the CS was quantified. […] (FIG. 9C) No locomotor changes were observed on day 3 (t(26)=1.073, p>0.05). Data are mean +/− SEM.
FIGS. 10A-10B: MBDB improves fear extinction in a mouse model of PTSD. A single CS-US (tone-shock) pairing on day 1 was followed by 6 conditioned stimulus (CS) presentations in a novel context (context B). MBDB or saline vehicle was injected 30 min prior to extinction training on day 2. The time spent freezing to the CS was quantified on […]. […] Data are mean +/− SEM. N=10 for MBDB group (5 mg/kg, IP) and N=16 for saline control group. **p<0.01 vs. vehicle control group.
Effective PTSD treatments facilitate the disassociation between a traumatic memory and the patient's fear response, making cues for the traumatic memory evoke less of a fear response. This is modeled in the mouse fear extinction paradigm (see FIG. 9A) which takes place over 3 days. On day 1 (fear conditioning), mice are trained to acquire a “traumatic memory,” namely associating the conditioned stimulus (CS, tone) to the unconditioned stimulus (US, foot shock). On day 2 (extinction training), they are trained to forget the traumatic memory association by presenting the CS 6 times (with no US) in a novel environment. On day 3 (extinction recall), the mice are “asked” if that tone (CS) still elicits a fearful response, as measured by the time spent freezing when the tone is presented. Less time freezing means better extinction recall. Drugs that improve extinction recall reduce freezing time on day 3, and, therefore, show potential as a PTSD treatment.

T1 sequence (P31652 whole entry): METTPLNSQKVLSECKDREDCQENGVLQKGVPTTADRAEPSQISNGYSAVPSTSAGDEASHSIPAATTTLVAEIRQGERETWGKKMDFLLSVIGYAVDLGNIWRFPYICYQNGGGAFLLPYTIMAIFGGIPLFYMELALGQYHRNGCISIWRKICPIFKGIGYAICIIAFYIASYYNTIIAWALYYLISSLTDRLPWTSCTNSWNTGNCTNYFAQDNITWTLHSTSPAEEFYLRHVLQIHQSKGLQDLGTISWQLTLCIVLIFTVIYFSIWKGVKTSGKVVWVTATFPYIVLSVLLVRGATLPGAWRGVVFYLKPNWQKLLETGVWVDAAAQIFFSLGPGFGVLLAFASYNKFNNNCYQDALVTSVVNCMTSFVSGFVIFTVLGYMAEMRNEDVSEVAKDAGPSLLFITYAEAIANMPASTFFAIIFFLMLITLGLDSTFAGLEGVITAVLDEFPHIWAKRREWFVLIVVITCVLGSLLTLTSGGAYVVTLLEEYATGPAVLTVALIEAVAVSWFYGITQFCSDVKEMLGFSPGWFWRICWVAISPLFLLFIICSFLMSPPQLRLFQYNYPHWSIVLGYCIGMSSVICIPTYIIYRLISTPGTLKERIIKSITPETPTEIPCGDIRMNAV
dopamine (DA) transporter, sequence (Q01959 whole entry): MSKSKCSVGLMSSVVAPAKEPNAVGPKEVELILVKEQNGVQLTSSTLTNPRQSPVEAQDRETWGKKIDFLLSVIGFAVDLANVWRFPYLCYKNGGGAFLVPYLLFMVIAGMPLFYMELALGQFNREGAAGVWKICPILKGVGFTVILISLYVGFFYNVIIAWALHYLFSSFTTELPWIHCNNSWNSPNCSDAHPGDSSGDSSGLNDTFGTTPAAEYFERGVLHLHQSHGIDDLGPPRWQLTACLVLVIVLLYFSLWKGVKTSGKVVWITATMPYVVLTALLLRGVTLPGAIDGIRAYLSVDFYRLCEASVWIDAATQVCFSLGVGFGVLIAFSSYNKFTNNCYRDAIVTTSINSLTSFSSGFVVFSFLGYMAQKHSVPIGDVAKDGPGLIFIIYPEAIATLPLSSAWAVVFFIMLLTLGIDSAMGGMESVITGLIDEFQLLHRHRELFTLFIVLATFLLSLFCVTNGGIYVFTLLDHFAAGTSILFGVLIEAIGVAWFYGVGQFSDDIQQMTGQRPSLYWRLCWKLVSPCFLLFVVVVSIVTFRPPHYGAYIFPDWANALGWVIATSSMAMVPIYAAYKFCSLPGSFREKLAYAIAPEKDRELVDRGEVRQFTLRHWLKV
serotonin (5HT) transporter, sequence (P31645 whole entry): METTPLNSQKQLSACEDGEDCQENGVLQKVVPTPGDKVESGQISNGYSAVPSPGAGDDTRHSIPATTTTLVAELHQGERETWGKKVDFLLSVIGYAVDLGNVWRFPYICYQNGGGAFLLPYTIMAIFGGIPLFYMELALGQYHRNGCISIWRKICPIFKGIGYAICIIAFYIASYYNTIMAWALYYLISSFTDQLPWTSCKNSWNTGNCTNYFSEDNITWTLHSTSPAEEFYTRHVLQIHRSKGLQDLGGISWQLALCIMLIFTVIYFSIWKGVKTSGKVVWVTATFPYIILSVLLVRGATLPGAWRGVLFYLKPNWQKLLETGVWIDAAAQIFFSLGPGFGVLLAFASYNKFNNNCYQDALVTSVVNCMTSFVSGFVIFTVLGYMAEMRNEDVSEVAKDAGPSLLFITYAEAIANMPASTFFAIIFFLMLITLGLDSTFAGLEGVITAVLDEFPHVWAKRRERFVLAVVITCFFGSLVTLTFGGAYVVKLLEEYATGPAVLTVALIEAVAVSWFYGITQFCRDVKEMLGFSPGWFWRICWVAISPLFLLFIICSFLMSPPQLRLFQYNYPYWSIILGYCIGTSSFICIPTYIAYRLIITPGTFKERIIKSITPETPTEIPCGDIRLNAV
serotonin transporter, sequence (P31645 whole entry): as above
norepinephrine (NE) transporter, sequence (P23975 whole entry): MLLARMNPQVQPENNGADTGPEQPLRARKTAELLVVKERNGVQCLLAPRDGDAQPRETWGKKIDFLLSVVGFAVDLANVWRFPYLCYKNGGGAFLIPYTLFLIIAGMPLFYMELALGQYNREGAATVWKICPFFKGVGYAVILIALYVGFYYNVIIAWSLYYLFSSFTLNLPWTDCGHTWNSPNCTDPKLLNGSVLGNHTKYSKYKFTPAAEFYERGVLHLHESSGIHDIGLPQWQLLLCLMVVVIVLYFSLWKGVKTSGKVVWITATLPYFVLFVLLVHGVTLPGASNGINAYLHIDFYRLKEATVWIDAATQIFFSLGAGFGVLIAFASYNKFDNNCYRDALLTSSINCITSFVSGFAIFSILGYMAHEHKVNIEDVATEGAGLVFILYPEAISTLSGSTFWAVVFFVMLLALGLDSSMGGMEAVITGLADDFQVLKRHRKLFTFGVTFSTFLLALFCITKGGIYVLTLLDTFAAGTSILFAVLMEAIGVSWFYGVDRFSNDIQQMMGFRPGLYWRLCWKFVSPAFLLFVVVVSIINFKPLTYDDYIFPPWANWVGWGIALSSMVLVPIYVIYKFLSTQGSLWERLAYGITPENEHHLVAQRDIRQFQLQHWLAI

CNC(C)C(=O)c1ccc2c(c1)OCO2 (stereo not drawn) [methylone, 3,4-methylenedioxy-N-methylcathinone]
affinity for the serotonin transporter lower by comparison to MDMA [1]: 3 × | Number of cases (N = 28), Magnitude of Improvement [2]: 0 | adverse effects or after-effects ([2]; Cohort 1, 4 healthy subjects, single session, total dose 790 or 870 mg oral): no adverse effects or after-effects were observed or reported | cases in which methylone dosing was well tolerated and no safety events were reported ([2]; Cohort 2, 25 of 28 cases): 89.3% | patients with initial improvement with the first methylone session ([2]; Cohort 2, 25 of 28 patients): ~90% | patients achieving CGI-I 1 or 2 ([2]; Cohort 2 MDD subset, 8/8 patients): 100% | patients achieving CGI-I 1 or 2 ([2]; Cohort 2 PTSD subset, 16/20 patients): 80% | patients achieving CGI-I 1 or 2 (much improved or very much improved) ([2]; Cohort 2 overall, N=28, oral methylone, single or multiple sessions, compared to baseline CGI-S): 86% | cases reporting a durable effect ([2]; MDD subset of Cohort 2, 6 narratives with durability information): 5 | cases with durable effect of 6 months or greater ([2]; PTSD subset of Cohort 2): 12 | case narratives reporting a durable effect ([2]; PTSD subset of Cohort 2, 16 narratives with durability information): 15 | patients with magnitude of improvement CGI 1 or 2 ([2]; PTSD subset, of 5 patients with concomitant SSRIs or other antidepressant classes): 4 | Number of cases (N = 28), Magnitude of Improvement ([2]; highest observed CGI-I = 1 (very much improved), Cohort 2): 11* | Number of cases (N = 28), Magnitude of Improvement ([2]; highest observed CGI-I = 2 (much improved), Cohort 2): 13 | Number of cases (N = 28), Magnitude of Improvement ([2]; highest observed CGI-I = 3 (minimally improved), Cohort 2): 4 | Number of cases (N = 28), Magnitude of Improvement ([2]; highest observed CGI-I = 4 (no change), Cohort 2): 0 | Number of cases (N = 28), Magnitude of Improvement ([2]; highest observed CGI-I = 5 (minimally worse), Cohort 2): 0 | Number of cases (N = 28), Magnitude of Improvement ([2]; highest observed CGI-I = 6 (much worse), Cohort 2): 0 | patients achieving CGI-I much improved or very much improved ([3]; 21 PTSD patients): 81% | tolerability ([3]; 21 PTSD patients): generally well tolerated | patients reporting a durable effect ([3]; durability captured for 17 of 21 patients): 16 | total adverse events noted ([3]; in three of the 21 patients, none severe): four | patients with durable effect >six months ([3]; in vivo): 11 | patients achieving a CGI-I of 1 or 2 ([3]; of 21 PTSD patients): 17 | patients achieving CGI-I scores of 1 or 2 ([3]; patients who received only a single dose of methylone (n=9)): 89% | patients with initial improvement after the initial session ([3]; patients with multiple methylone dosing sessions (n=12)): 83% | side effects [4]: no detectable side effects | binding at the NE transporter [5]: confirmed methylone binding | agonist or antagonist activity (criteria: >30% activity, >50% inhibition) [6]: did not meet criteria for agonist or antagonist activity | binding at the 5HT transporter [7]: confirmed methylone binding | type of interaction at the SERT [8]: competitive | Bmax of [3H]5HT uptake ([8]; in the presence of methylone): no decrease | Kd of [3H]5HT uptake ([8]; in the presence of methylone): right shifted | binding at the DA transporter [9]: confirmed methylone binding | enhancement of fear extinction recall compared to saline controls (reduced freezing on day 3) ([10]; methylone 30 mg/kg IP 30 min prior to extinction training): ~60% | locomotion during the testing session ([10]; methylone 30 mg/kg IP, day 3): no differences between groups

From patent US20250221957A1, “PS[…] AND THEIR USE FOR TREATING […] AND NE[…] DISORDERS” (Transcend Therapeutics, Inc., priority 2021, published 2025)
